Holding throughout (assay type): cell-based
For experiment [1], the target named is T1, syn-pre-pro-Δ89-CB1R (Homo sapiens, UniProt P21554).
T1 construct: expressed in transfected cells; host or cells: Saccharomyces cerevisiae BY4741-derived ZsGreen reporter strain (Gpa1-Gαi3 chimera; also sterol-modified strains ST01–ST15)
Put plainly: cell-based. Particulars: for EC50 values / activity in words: PINACA agonist series.

The target in experiment [2] is T2, Δ89-CB1R (Homo sapiens, UniProt P21554).
T2 construct: expressed in transfected cells; host or cells: Saccharomyces cerevisiae BY4741-derived ZsGreen reporter strain (Gpa1-Gαi3 chimera)
T2 sequence (P21554 with tags, fused parts or gaps): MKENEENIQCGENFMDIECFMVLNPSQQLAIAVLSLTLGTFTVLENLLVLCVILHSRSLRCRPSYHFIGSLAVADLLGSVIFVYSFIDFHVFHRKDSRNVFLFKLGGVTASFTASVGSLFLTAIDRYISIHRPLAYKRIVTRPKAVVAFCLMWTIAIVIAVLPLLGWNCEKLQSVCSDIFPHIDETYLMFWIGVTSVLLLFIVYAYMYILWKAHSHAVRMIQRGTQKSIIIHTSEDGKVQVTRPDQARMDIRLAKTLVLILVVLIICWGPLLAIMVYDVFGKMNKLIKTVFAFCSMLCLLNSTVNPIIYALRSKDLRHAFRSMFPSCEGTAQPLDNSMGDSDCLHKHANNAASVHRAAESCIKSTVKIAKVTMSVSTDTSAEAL
Put plainly: Yeast ZsGreen reporter strain with N-terminally truncated CB1R.

For experiment [3], the target named is T3, WT CB1R (Homo sapiens, UniProt P21554).
T3 construct: expressed in transfected cells; host or cells: Saccharomyces cerevisiae BY4741-derived ZsGreen reporter strain (Gpa1-Gαi3 chimera)
T3 sequence (P21554 whole entry): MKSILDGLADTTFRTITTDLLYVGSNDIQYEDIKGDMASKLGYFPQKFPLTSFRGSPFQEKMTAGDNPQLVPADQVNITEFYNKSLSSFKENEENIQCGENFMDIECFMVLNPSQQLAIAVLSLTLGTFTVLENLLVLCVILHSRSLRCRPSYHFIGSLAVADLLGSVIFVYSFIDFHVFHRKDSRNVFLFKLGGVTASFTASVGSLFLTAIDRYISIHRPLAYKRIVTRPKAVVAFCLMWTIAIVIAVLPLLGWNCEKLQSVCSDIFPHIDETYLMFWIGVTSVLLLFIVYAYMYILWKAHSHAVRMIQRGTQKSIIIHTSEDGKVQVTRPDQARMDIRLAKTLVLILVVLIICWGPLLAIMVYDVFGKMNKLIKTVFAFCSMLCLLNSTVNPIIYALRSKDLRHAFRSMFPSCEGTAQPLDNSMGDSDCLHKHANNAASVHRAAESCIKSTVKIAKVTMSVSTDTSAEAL

Experiment [4] deals with T1, syn-pre-pro-Δ89-CB1R. Put plainly: syn-pre-pro-Δ89-CB1R dose response in sterol-modified yeast strains ST01–ST15. The source says:
Ergosterol and cholesterol share a common zymosterol precursor that can be converted to cholesterol through a four-enzyme pathway that produces seven downstream metabolites (Figure 2b). We recently replaced the native yeast sterol pathway with cholesterol biosynthesis enzymes to create a small library of yeast strains that produce varying levels of these seven metabolites in the GpaI-Gai3 chimeric ZsGreen human GPCR reporter strain [30]. The syn-pre-pro-Δ89-CB1R expression construct was transformed into fifteen strains (ST01–ST15, Figure 2c, Supplementary Table S1) selected to cover the metabolic and structural sterol space. We then performed dose response experiments with ACEA and measured the ZsGreen via fluorescent cytometry.
Yeast colonies were picked and grown overnight to saturation in pH 5.8 SD-His media in a 2.2 mL deep well plate (Axygen, Corning, NY, USA), grown in a plate-shaking incubator (30 °C, 1000 rpm, 3 mm orbital). In the morning, cultures were diluted to 1:10 or 1:25 in SD-His media buffered to pH 7.1 with 100 mM MOPSO (unless otherwise specified). Ligands were added to the culture and incubated with shaking for 8 h. Cells were then washed three times with ice-cold Tris buffer (pH 7) and diluted to 1:20 for cytometry. All cytometry was performed on a Sony SA3800 spectral analyzer. Each sample was tested for 10,000 events and read at a rate of 1000 events per second. All assays as reported here were filtered only for singlet populations.

Experiment [5] deals with T4, Syn-pre-pro CB1R (Homo sapiens, UniProt P21554).
T4 construct: expressed in transfected cells; host or cells: Saccharomyces cerevisiae BY4741-derived ZsGreen reporter strain (Gpa1-Gαi3 chimera)
T4 sequence (P21554 whole entry): as above
Briefly: Yeast ZsGreen reporter strain with full-length syn-pre-pro CB1R.

The target of experiment [6] is T5, CB1 Cannabinoid Receptor (Homo sapiens, UniProt P21554).
T5 construct: Since the human CB1R strain uses the full-length receptor; host or cells: Ready-to-Assay CB1 Cannabinoid Receptor Frozen Cells (commercial human cell line with promiscuous Gα15, division-arrested)
T5 sequence (P21554 whole entry): as above
Briefly: Mammalian cell calcium assay (Gα15, Fluo-8 fluorescence). Particulars: high concentrations (10 μM), four-point dose response. As to the method:
To validate the findings and further evaluate the performance of our yeast screening assay, we retested a subset of our library in a conventional mammalian cell assay. We acquired human cell lines depleted of native GPCRs and containing the promiscuous Gα15, wherein GPCR activation triggers intracellular calcium release, which is measured by Fluo-8 fluorescence (see Section 4). We selected eight compounds for side-by-side testing between the yeast and human host for CB1R (Figure 4a–d). To maximize the number of compounds tested per plate, we performed a limited four-point dose response on the mammalian cells (Figure 4a,b).
Mammalian cell assays were performed in Eurofins Ready-to-Assay™ CB1 Cannabinoid Receptor Frozen Cells. Cells were division-arrested, which limited the number of samples that could be measured, so a limited 4-point dose response was performed. Cells were seeded in 96-well plates and grown for 24 h. Cells were washed with Hank’s Balanced Salt Solution (HBSS) with 20 mM HEPES and 2.5 mM Probenecid at pH 7.4. […] Cells with dye were incubated at 37 °C for 1 h before fluorescent measurement on a Flexstation 3-plate reader (Molecular Devices, San Jose, CA, USA). Baseline fluorescence was measured for 10 s before 50 μL ligands were injected into 100 μL cells. Samples were measured for 180 s and recorded values were measured as ΔF/F0 (Fmax − Fmin/Fmin).

[7] abbreviates: FUBINACA and PINACA compounds, 8 h, n = 3 (Figure 3), read-out: EC50, dose response.
The mark [8] stands for this setting: Supplementary Table S2, read-out: EC50 (M) Yeast CB1R.
[9] abbreviates: read-out: EC50, ACEA dose response.
Setting [10] is: compound at 10 nM, screen, n = 1.

“Also recorded” adds a separate entry of the source. Where two headings read alike, the source gives them in different places.

T1 sequence (P21554 90-472 limits assumed, stated change not applied): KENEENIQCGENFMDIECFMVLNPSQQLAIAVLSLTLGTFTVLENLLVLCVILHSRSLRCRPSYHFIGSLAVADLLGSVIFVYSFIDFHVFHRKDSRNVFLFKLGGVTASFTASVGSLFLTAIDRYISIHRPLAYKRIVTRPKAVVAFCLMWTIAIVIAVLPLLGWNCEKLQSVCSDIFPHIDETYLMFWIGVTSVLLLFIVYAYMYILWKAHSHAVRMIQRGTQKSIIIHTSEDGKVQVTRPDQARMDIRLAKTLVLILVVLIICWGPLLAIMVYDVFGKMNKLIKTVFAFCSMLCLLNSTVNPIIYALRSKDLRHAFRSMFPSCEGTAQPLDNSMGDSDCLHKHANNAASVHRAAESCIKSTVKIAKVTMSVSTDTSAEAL

By EC50 is commonly meant the concentration that produces a half-maximal response. With `CCCC(NC(=O)c1nn(Cc2ccc(F)cc2)c2ccccc12)C(N)=O` (single isomer, unassigned) [AB-FUBINACA isomer 1], the “maximal signaling in dose response” value in experiment [1] is “high maximal signaling”. Moreover, the EC50 in experiment [1] (setting [7]) was found to be 1e-11 M; in experiment [1] (setting [8]) it was 4.74e-10 M.
On to `CCCCCn1nc(C(=O)NC(C(N)=O)C(C)C)c2ccccc21` (stereo not drawn) [AB-PINACA], for which, in experiment [1], the maximal activity is listed as 79–84% and the “EC50 values / activity in words” value is on record as “low nanomolar range”. Moreover, the EC50 in experiment [1] (setting [7]) was found to be 1.21e-09 M.
For the compound `CCCCCn1nc(C(=O)NC(C(N)=O)C(C)(C)C)c2ccccc21` (stereo not drawn) [ADB-PINACA], in experiment [1], the maximal activity is given as 79–84% and the “EC50 values / activity in words” value was “low nanomolar range”. In experiment [1] (setting [7]), the EC50 is 9e-11 M. Moreover, the concentration for a half-maximal effect (EC50) in experiment [1] (setting [8]) is 8.34e-12 M.
Consider `CCC(C(N)=O)N(C)C(=O)c1nn(Cc2ccc(F)cc2)c2ccccc12` (single isomer, unassigned) [AB-FUBINACA isomer 5], for which the “maximal signaling in dose response” value in experiment [1] is given as “lower response”. In addition, in experiment [1] (setting [7]), the EC50 was determined as 1.59e-08 M.
On to `C=C1CCC[C@]2(C)CC[C@@H](C(C)(C)O)C[C@@H]12` [β-Eudesmol], for which the “activity in terpene library screen” value in experiment [1] is “found to activate CB1R”. In experiment [1] (dose response, n = 3), the “signaling in terpene dose response” value was “showed signaling at high (10 µM) concentrations”.
`O=C(Oc1cccc2cnccc12)c1cn(CCCCCF)c2ccccc12` [5-fluoro PB-22 5-hydroxyisoquinoline isomer]: the EC50 in experiment [1] (setting [8]) was determined as 9.09e-12 M.
On to `CCCCC/C=C\C/C=C\C/C=C\C/C=C\CCCC(=O)NCCCl` [ACEA, Arachidonyl-2′-chloroethylamide], for which the fold activation is given as 15 fold in experiment [2] (truncated receptor), 28 fold in experiment [1] and “approximately 7 fold” in experiment [5] (syn-pre-pro modification alone). Also, the EC50 turned out to be 5050 nM in experiment [2] (Δ89-CB1R in yeast, 8 h, n = 3, read-out: EC50, ACEA dose response); 1300 nM in experiment [3] (setting [9]); 73 nM in experiment [4] (Strain ST01, read-out: EC50); 305 nM in experiment [4] (Strain ST02, read-out: EC50); 144 nM in experiment [4] (Strain ST03, read-out: EC50); 96 nM in experiment [4] (Strain ST04, read-out: EC50). For the same compound, the EC50 in experiment [4] (Strain ST05, read-out: EC50) amounted to 107 nM; in experiment [4] (Strain ST06, read-out: EC50), 74 nM; in experiment [4] (Strain ST08, read-out: EC50), 102 nM; in experiment [4] (Strain ST09, read-out: EC50), 134 nM; in experiment [4] (Strain ST10, read-out: EC50), 253 nM; in experiment [4] (Strain ST11, read-out: EC50), 160 nM. Further, the EC50 is 140 nM in experiment [4] (Strain ST12, read-out: EC50); 99 nM in experiment [4] (Strain ST13, read-out: EC50); 640 nM in experiment [4] (Strain ST14, read-out: EC50); 604 nM in experiment [4] (Strain ST15, read-out: EC50); 65 nM in experiment [4] (cholesterol intermediate strain ST07, text value, read-out: EC50); 199 nM in experiment [4] (mean over ST01–ST15, read-out: average EC50 value across the intermediate strains). For the same compound, the EC50 in experiment [1] (setting [9]) amounted to 1.5e-07 M; in experiment [5] (Syn-pre-pro CB1R in yeast, 8 h, n = 3, read-out: EC50, ACEA dose response), 40 nM. Also, the “fold signaling (activation)” value in experiment [3] is below 4 fold. Also, the entries for the “Fold Change CB1R” value in experiment [4] (Strain ST01), in experiment [4] (Strain ST13) and in experiment [1] were 73.2 fold, 34.3 fold and 93.6 ± 15.6 fold, respectively. In addition, the “drop in sensitivity compared to the full-length syn-pre-pro construct” value in experiment [1] was 3.8 fold.
Consider `CCC(C)(NC(=O)c1nn(Cc2ccc(F)cc2)c2ccccc12)C(N)=O` (single isomer, unassigned) [AB-FUBINACA isomer 2], for which the “maximal signaling in dose response” value in experiment [1] is on record as “lower response”. In addition, the EC50 in experiment [1] (setting [7]) came to 2.3e-10 M.
With `CC(C)[C@H](NC(=O)c1cn(Cc2ccccc2)c2ccccc12)C(N)=O` [AB-BICA], in experiment [1] (setting [8]), the EC50 is 5.66e-09 M.
For `CC(C)C(NC(=O)c1nn(Cc2ccc(F)cc2)c2ccccc12)C(N)=O` (stereo not drawn) [AB-FUBINACA], in experiment [1], the maximal activity was 79–84%. Moreover, the “maximal signaling in dose response” value in experiment [1] is listed as “high maximal signaling”. Besides, the EC50 in experiment [1] (EC50 (M) Yeast CB1R) was 1.13e-11 M; in experiment [1] (EC50, dose response) it was 6.6e-10 M.
`CC(C)=CCCC(C)CCO` (stereo not drawn) [(+)-β-Citronellol]: the “activity in terpene library screen” value in experiment [1] is “found to activate CB1R”.
`Cc1c(C(=O)c2ccccc2)c(N)c(-c2ccccc2)n1Cc1ccc(Cl)cc1` [URB447]: in experiment [1] (setting [10]), the “relative fluorescence of the ACEA positive control” value (from here on “relative fluorescence”) was “less than 25%”.
With `CCCCCCC(C)(C)c1cc(O)c2c(c1)OC(C)(C)[C@H]1CC=C(CO)C[C@H]21` [HU-211], in experiment [1], the “relative fluorescence” value was “less than 25%”.
In the case of `COc1ccc(C(=O)c2c(C)n(CCN3CCOCC3)c3cc(Br)ccc23)cc1` [WIN54,461], in experiment [1] (setting [10]), the “relative fluorescence” value was “less than 25%”.
In the case of `CC[C@H](C)[C@H](NC(=O)c1nn(CCCCCF)c2ccccc12)C(N)=O` (single isomer, unassigned) [5-fluoro ADB-PINACA isomer 2], the “induction of calcium dye fluorescence” value in experiment [6] is given as “failed to induce significant levels of fluorescence”. For the same compound, the “EC50 values / activity in words” value in experiment [1] is “drastic loss of activity”. Further, the “activity in the yeast assay” value in experiment [1] (side-by-side with mammalian cells, high concentrations (10 μM), listed as 5-fluoro 2-ADB-PINACA isomer 2) is “lowest activity; also recorded: partial agonism”.
